IC50 data for 20 compounds are collected here from patent US20080096861A1, “Chemical Compounds” (SMITHKLINE BEECHAM CORPORATION, priority 2004, published 2008).

pIC50: −log10 of the molar value.

This experiment concerns HIV-1 IIIB. Kind of experiment: HOS HIV-1 infectivity assay. It is filed as cell-based. The following applies: Human immunodeficiency virus 1, IIIB; as determined by the infectivity assay; strain not stated in Table 2; read-out: Activity Level. The essentials: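 Luminescence served as read-out: Steady-Glo luciferase for infected wells, CellTiter-Glo for virus-free wells assessing cytotoxicity. Reporter HOS cells (hCXCR4/hCCR5/hCD4, LTR-luciferase) were preincubated with compound for 1 h, infected with PBL-propagated virus, and cultured 96 h at 37 °C.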
Consider `CN(Cc1nc2ccccc2n1C[C@H]1CCCN(/C(N)=N/C#N)C1)[C@H]1CCCc2cccnc21` [Example 91, (3R)—N-Cyano-3-{[2-({methyl[(8S)-5,6,7,8-tetrahydro-8-quinolinyl]amino}methyl)-1H-benzimidazol-1-yl]methyl}-1-piperidinecarboximidamide], for which the pIC50 is more than 7.00.
For `CN(C)/C(=N\C#N)N1CCC[C@H](Cn2c(CN(C)[C@H]3CCCc4cccnc43)nc3ccccc32)C1` [Example 92, (3R)—N′-Cyano-N,N-dimethyl-3-{[2-({methyl[(8S)-5,6,7,8-tetrahydro-8-quinolinyl]amino}methyl)-1H-benzimidazol-1-yl]methyl}-1-piperidinecarboximidamide], the pIC50 is 6.30 to 7.00.
Regarding `CCCN(Cc1nc2ccccc2n1C[C@H]1CCCN(C)C1)[C@H]1CCCc2cccnc21` [Example 93, (8S)—N-[(1-{[(3S)-1-Methyl-3-piperidinyl]methyl}-1H-benzimidazol-2-yl)methyl]-N-propyl-5,6,7,8-tetrahydro-8-quinolinamine], the pIC50 is more than 7.00.
Take `CC(C)CN(Cc1nc2ccccc2n1C[C@H]1CCCN(C)C1)[C@H]1CCCc2cccnc21` [Example 94, (8S)—N-[(1-{[(3S)-1-Methyl-3-piperidinyl]methyl}-1H-benzimidazol-2-yl)methyl]-N-(2-methylpropyl)-5,6,7,8-tetrahydro-8-quinolinamine]: the pIC50 was 6.30 to 7.00.
Take `CN1CCC[C@H](Cn2c(CN(CCO)[C@H]3CCCc4cccnc43)nc3ccccc32)C1` [Example 95, 2-{[(1-{[(3S)-1-Methyl-3-piperidinyl]methyl}-1H-benzimidazol-2-yl)methyl][(8S)-5,6,7,8-tetrahydro-8-quinolinyl]amino}ethanol]: the pIC50 was more than 7.00.
To `CN1CCC[C@H](Cn2c(CN(CCCO)[C@H]3CCCc4cccnc43)nc3ccccc32)C1` [Example 96, 3-{[(1-{[(3S)-1-Methyl-3-piperidinyl]methyl}-1H-benzimidazol-2-yl)methyl][(8S)-5,6,7,8-tetrahydro-8-quinolinyl]amino}-1-propanol] belongs more than 7.00; to `CCCN(Cc1nc2ccccc2n1C[C@H]1CCCN(C(C)C)C1)[C@H]1CCCc2cccnc21` [Example 97, (8S)—N-[(1-{[(3S)-1-(1-methylethyl)-3-piperidinyl]methyl}-1H-benzimidazol-2-yl)methyl]-N-propyl-5,6,7,8-tetrahydro-8-quinolinamine], more than 7.00; to `CC(C)CN(Cc1nc2ccccc2n1C[C@H]1CCCN(C(C)C)C1)[C@H]1CCCc2cccnc21` [Example 98, (8S)—N-[(1-{[(3S)-1-(1-Methylethyl)-3-piperidinyl]methyl}-1H-benzimidazol-2-yl)methyl]-N-(2-methylpropyl)-5,6,7,8-tetrahydro-8-quinolinamine], 6.30 to 7.00.
Regarding `CC(C)N1CCC[C@H](Cn2c(CN(CCO)[C@H]3CCCc4cccnc43)nc3ccccc32)C1` [Example 99, 2-{[(1-{[(3S)-1-(1-Methylethyl)-3-piperidinyl]methyl}-1H-benzimidazol-2-yl)methyl][(8S)-5,6,7,8-tetrahydro-8-quinolinyl]amino}ethanol], the pIC50 is more than 7.00.
As to `CC(C)N1CCC[C@H](Cn2c(CN(CCCO)[C@H]3CCCc4cccnc43)nc3ccccc32)C1` [Example 100, 3-{[(1-{[(3S)-1-(1-Methylethyl)-3-piperidinyl]methyl}-1H-benzimidazol-2-yl)methyl][(8S)-5,6,7,8-tetrahydro-8-quinolinyl]amino}-1-propanol], the pIC50 is more than 7.00.
To `CN(C)CC(C)(C)CN1CCC[C@H](Cn2c(CN(C)[C@H]3CCCc4cccnc43)nc3ccccc32)C1` [Example 101, (8S)—N-{[1-({(3S)-1-[3-(Dimethylamino)-2,2-dimethylpropyl]-3-piperidinyl}methyl)-1H-benzimidazol-2-yl]methyl}-N-methyl-5,6,7,8-tetrahydro-8-quinolinamine] belongs more than 7.00; to `CN(Cc1nc2ccccc2n1C[C@H]1CCCN(Cc2cccs2)C1)[C@H]1CCCc2cccnc21` [Example 102, (8S)—N-Methyl-N-[(1-{[(3S)-1-(2-thienylmethyl)-3-Piperidinyl]methyl}-1H-benzimidazol-2-yl)methyl]-5,6,7,8-tetrahydro-8-quinolinamine], more than 7.00.
To `CN(Cc1nc2ccccc2n1C[C@H]1CCCN(Cc2nccs2)C1)[C@H]1CCCc2cccnc21` [Example 103, (8S)—N-Methyl-N-[(1-{[(3S)-1-(1,3-thiazol-2-ylmethyl)-3-piperidinyl]methyl}-1H-benzimidazol-2-yl)methyl]-5,6,7,8-tetrahydro-8-quinolinamine] belongs 6.30 to 7.00.
Consider `CN(Cc1nc2ccccc2n1C[C@H]1CCCN(Cc2cccn2C)C1)[C@H]1CCCc2cccnc21` [Example 104, (8S)—N-Methyl-N-{[1-({(3S)-1-[(1-methyl-1H-pyrrol-2-yl)methyl]-3-piperidinyl}methyl)-1H-benzimidazol-2-yl]methyl}-5,6,7,8-tetrahydro-8-quinolinamine], for which the pIC50 was more than 7.00.
On to `CN(C)CCN1CCC[C@H](Cn2c(CN(C)[C@H]3CCCc4cccnc43)nc3ccccc32)C1` [Example 105, (8S)—N-{[1-({(3S)-1-[2-(Dimethylamino)ethyl]-3-piperidinyl}methyl)-1H-benzimidazol-2-yl]methyl}-N-methyl-5,6,7,8-tetrahydro-8-quinolinamine], for which the pIC50 was more than 7.00.
`CN1CCC[C@H]1CN1CCC[C@H](Cn2c(CN(C)[C@H]3CCCc4cccnc43)nc3ccccc32)C1` [Example 106, (8S)—N-Methyl-N-({1-[((3S)-1-{[(2S)-1-methyl-2-pyrrolidinyl]methyl}-3-Piperidinyl)methyl]-1H-benzimidazol-2-yl}methyl)-5,6,7,8-tetrahydro-8-quinolinamine]: the pIC50 was more than 7.00.
For `CC(C)N1CCC[C@H]1CN1CCC[C@H](Cn2c(CN(C)[C@H]3CCCc4cccnc43)nc3ccccc32)C1` [Example 107, (8S)—N-Methyl-N-({1-[((3S)-1-{[(2S)-1-(1-methylethyl)-2-Pyrrolidinyl]methyl}-3-piperidinyl)methyl]-1H-benzimidazol-2-yl}methyl)-5,6,7,8-tetrahydro-8-quinolinamine], the pIC50 was more than 7.00.
For the compound `CN1CCC[C@@H]1CN1CCC[C@H](Cn2c(CN(C)[C@H]3CCCc4cccnc43)nc3ccccc32)C1` [Example 108, (8S)—N-Methyl-N-([1-[((3S)-1-{[(2R)-1-methyl-2-pyrrolidinyl]methyl}-3-piperidinyl)methyl]-1H-benzimidazol-2-yl]methyl)-5,6,7,8-tetrahydro-8-quinolinamine], the pIC50 was more than 7.00.
To `CC(C)N1CCC[C@@H]1CN1CCC[C@H](Cn2c(CN(C)[C@H]3CCCc4cccnc43)nc3ccccc32)C1` [Example 109, (8S)—N-Methyl-N-({1-[((3S)-1-{[(2R)-1-(1-methylethyl)-2-pyrrolidinyl]methyl}-3-piperidinyl)methyl]-1H-benzimidazol-2-yl}methyl)-5,6,7,8-tetrahydro-8-quinolinamine] belongs 6.30 to 7.00.
As to `CN(Cc1nc2ccccc2n1CCCN)[C@H]1CCCc2cccnc21` [Example 110, (8S)—N-{[1-(3-Aminopropyl)-1H-benzimidazol-2-yl]methyl}-N-methyl-5,6,7,8-tetrahydro-8-quinolinamine], the pIC50 is more than 7.00.
